Measured values reported in the supplement of paper PMC8497498.

Tests used:
[1] = tested on: primary human hepatocytes; test: CC20 hepatic nuclei (20% reduction); higher = less toxic
Method: (§1)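 Dose-response of P. vivax liver stages in primary human hepatocytes, with 8 points (10 uM-[…], v1) or 12 points in duplicate (50 uM-280 pM, v2). Read-out is high-content imaging of schizont net growth area, hypnozoite quantity and hepatic nuclei. EC50 and CC20 (20% nuclei loss) were fitted in CDD Vault from the highest-quality independent experiment; toxic-dose bell-shaped points were masked. '>' marks the highest concentration with less than 50% activity, and ND means a non-sigmoidal curve.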

[2] = tested on: Plasmodium vivax liver stage (primary human hepatocyte culture); test: maximum inhibition of schizont net growth area; higher = more active
Method: as §1

[3] = tested on: Plasmodium cynomolgi Berok K4 asexual blood stage; test: EC50 asexual blood stage growth
Method: (§2)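 The Reference Compound Library was tested by 10-point 3-fold dose response against P. cynomolgi Berok K4 asexual blood stages (SYBR proliferation assay, mefloquine background control). Culture medium contained 0.5% AlbuMAX or 20% M. fascicularis serum. P. falciparum 3D7 was tested in a 72-h SYBR Green assay with 0.5% AlbuMAX. Values are geometric mean EC50 over independent experiments; 10 uM is the top dose.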

[4] = tested on: Plasmodium falciparum 3D7 asexual blood stage; test: EC50 asexual blood stage growth; conditions: serum: 0.5% AlbuMAX
Method: as §2

[5] = tested on: Plasmodium vivax liver stage (primary human hepatocyte culture)
Method: as §1

[6] = P. vivax isolate: Pv914, hepatocyte lot: BGW, assay mode: Prophylactic, 6-day
[7] = P. vivax isolate: Pv914, hepatocyte lot: BGW, assay mode: Radical Cure, 8-day (treatment from day 5 post-infection)
[8] = serum: 20% M. fascicularis serum
[9] = P. vivax isolate: Pv668, hepatocyte lot: BGW, assay mode: Radical Cure, 8-day (treatment from day 5 post-infection)
[10] = P. vivax isolate: Pv360, hepatocyte lot: UBV, assay mode: Radical Cure, 8-day (treatment from day 5 post-infection)
[11] = P. vivax isolate: Pv992, hepatocyte lot: BGW, assay mode: Prophylactic, 6-day
[12] = P. vivax isolate: Pv360, hepatocyte lot: UBV, assay mode: Prophylactic, 6-day
[13] = P. vivax isolate: IVS16-38, hepatocyte lot: PDC, assay mode: Prophylactic, 6-day
[14] = P. vivax isolate: Pv923, hepatocyte lot: BGW, assay mode: Radical Cure, 8-day (treatment from day 5 post-infection)
[15] = P. vivax isolate: Pv796, hepatocyte lot: BGW, assay mode: Radical Cure, 8-day (treatment from day 5 post-infection)

Compound | CC20 hepatic nuclei [1, 6] [µM] | maximum inhibition [2, 6] [%] | EC50 asexual blood stage growth ([3]; serum: 0.5% AlbuMAX) [µM] | EC50 asexual blood stage growth [3, 8] [µM] | EC50 asexual blood stage growth [4] [µM] | EC50 hypnozoite quantity [5, 6] [µM] | EC50 schizont net growth area [5, 6] [µM] | further results
CS(=O)(=O)c1ccc(-c2cnc(N)c(-c3ccc(C(F)(F)F)nc3)n2)cc1 | > 10 | 101 | 4.88 | 0.629 | 0.177 | 0.00729 | 0.00476 | CC20 hepatic nuclei [1, 7]: > 10 µM; maximum inhibition [2, 7]: 96.4%; EC50 hypnozoite quantity [5, 7]: > 10 µM; EC50 schizont net growth area [5, 7]: 0.0239 µM
O=C(NCCN1CCCC1)c1cc(-c2ccc(CN3CCOCC3)cc2)nc2ccc(F)cc12 | > 10 | 101 | 0.0015 | 0.0007 | 0.001 | 0.0104 | 0.00257 | CC20 hepatic nuclei [1, 7]: > 10 µM; maximum inhibition [2, 7]: 92.3%; EC50 hypnozoite quantity [5, 7]: > 10 µM; EC50 schizont net growth area [5, 7]: 0.00235 µM
OC(c1cc(C(F)(F)F)nc2c(C(F)(F)F)cccc12)C1CCCCN1 (racemic) [(±)-Mefloquine] | > 3.33 | 86 | 0.219 | 0.0664 | 0.0901 | > 10 | > 1.11 | –
O[C@H](c1cc(C(F)(F)F)nc2c(C(F)(F)F)cccc12)[C@@H]1CCCCN1 [(+)-Mefloquine] | 13.2 | 98.7 | 0.0312 | 0.06 | 0.0179 | 14.8 | 5.73 | CC20 hepatic nuclei [1, 9]: 23.3 µM; maximum inhibition [2, 9]: 93.9%; EC50 hypnozoite quantity [5, 9]: > 50 µM
CCN(CC)CCCNc1ccnc2cc(Cl)ccc12 [AQ-13] | > 10 | 56.1 | 0.0787 | 0.0559 | 0.016 | > 10 | – | –
Cc1nc(Nc2ncc(N3CCN(C)C(C)C3)c(Nc3cc(C)n(C)n3)n2)cc(C2CC2)c1F (stereo not given) [AZ412] | > 10 | 99.7 | 0.0768 | 0.0567 | 0.0232 | > 3.33 | 0.686 | CC20 hepatic nuclei [1, 10]: > 10 µM; maximum inhibition [2, 10]: 104%; EC50 hypnozoite quantity [5, 10]: > 10 µM; EC50 schizont net growth area [5, 10]: 0.381 µM
CCN(CC)Cc1cc(Nc2ccnc3cc(Cl)ccc23)ccc1O [Amodiaquine] | – | – | 0.0198 | 0.0081 | 0.006 | – | – | CC20 hepatic nuclei [1, 11]: > 10 µM; maximum inhibition [2, 11]: 87.2%; EC50 hypnozoite quantity [5, 11]: > 10 µM; EC50 schizont net growth area [5, 11]: 0.0141 µM
COC1OC2OC3(C)CCC4C(C)CCC(C1C)C24OO3 (stereo not given) [Artemether] | – | – | 0.0068 | 0.0065 | 0.0575 | – | – | CC20 hepatic nuclei [1, 12]: > 10 µM; maximum inhibition [2, 12]: 60.4%; EC50 hypnozoite quantity [5, 12]: > 10 µM
CCC1OC(=O)C(C)C(OC2CC(C)(OC)C(O)C(C)O2)C(C)C(OC2OC(C)CC(N(C)C)C2O)C(C)(O)CC(C)CN(C)C(C)C(O)C1(C)O (stereo not given) [Azithromycin] | > 10 | 63.3 | > 10 | > 10 | > 10 | > 10 | > 0.37 | –
CC(C)N=C(N)N=C(N)Nc1ccc(Cl)c(Cl)c1 [Chlorproguanil] | > 10 | 98.1 | 8.45 | > 10 | 5.34 | > 10 | > 1.11 | –
CCCCCCC[C@@H]1CN[C@H](C(=O)NC(C(C)Cl)C2O[C@H](SC)[C@H](O)[C@@H](O)[C@H]2O)C1 (stereo partly drawn) [Cis-Mirincamycin] | > 10 | 69.3 | 7.99 | > 10 | > 10 | > 10 | – | –
Cc1cc(Nc2ccc(S(F)(F)(F)(F)F)cc2)n2nc(C(C)(F)F)nc2n1 [DSM265] | – | – | 0.0064 | 0.0625 | 0.011 | – | – | CC20 hepatic nuclei [1, 13]: > 3.07 µM; CC20 hepatic nuclei [1, 14]: > 10 µM; maximum inhibition [2, 13]: 100%; maximum inhibition [2, 14]: 69.4%; EC50 hypnozoite quantity [5, 13]: > 3.07 µM; EC50 schizont net growth area [5, 13]: 0.126 µM; EC50 hypnozoite quantity [5, 14]: > 10 µM; EC50 schizont net growth area [5, 14]: > 1.11 µM
COc1cc2[nH]c(C)c(-c3ccc(Oc4ccc(OC(F)(F)F)cc4)cc3)c(=O)c2cc1Cl [ELQ-300] | > 10 | 97.9 | 0.042 | 0.0033 | 0.0471 | > 1.11 | 0.0576 | –
CCNCc1cc(Nc2ccnc3cc(Cl)ccc23)ccc1O [N-Desethylamodiaquine] | > 10 | 74.5 | 0.0222 | 0.0115 | 0.056 | > 10 | > 3.33 | –
COc1cc(NC(C)CCCN)c2nccc(C)c2c1Oc1ccc(Cl)c(Cl)c1 (stereo not given) [NPC-1161B] | > 10 | 91.9 | 2.76 | 8.2 | 2.86 | > 10 | > 0.37 | –
CCc1nc(N)nc(N)c1OCCCOc1ccccc1CCC(=O)O [P218] | > 10 | 101 | 0.0007 | 0.0017 | 0.002 | > 10 | 0.0511 | –
CCN(CC)CCCC(C)Nc1cc(OC)cc2cccnc12 (stereo not given) [Pamaquine] | – | – | 0.325 | 0.187 | 3.95 | – | – | CC20 hepatic nuclei [1, 11]: > 10 µM; maximum inhibition [2, 11]: 61%; EC50 hypnozoite quantity [5, 11]: > 3.33 µM; EC50 schizont net growth area [5, 11]: > 10 µM
COc1ccc2nc3cc(Cl)ccc3c(Nc3cc(CN4CCCC4)c(O)c(CN4CCCC4)c3)c2n1 [Pyronaridine] | 7.91 | 99.4 | 0.0035 | 0.004 | 0.005 | > 3.33 | > 3.33 | –
Clc1ccc2c(N[C@H]3CCCC[C@@H]3Nc3ccnc4cc(Cl)ccc34)ccnc2c1 [Ro 47-7737] | > 3.33 | 99 | 0.0042 | 0.0036 | 0.002 | > 3.33 | > 3.33 | CC20 hepatic nuclei [1, 10]: > 10 µM; maximum inhibition [2, 10]: 70.6%; EC50 hypnozoite quantity [5, 10]: > 10 µM; EC50 schizont net growth area [5, 10]: > 3.33 µM
N#Cc1cc(NC(=O)C2c3ccccc3C(=O)N(CC(F)(F)F)C2c2cccnc2)ccc1F (stereo not given) [SJ733] | – | – | 0.538 | 0.293 | 0.106 | – | – | CC20 hepatic nuclei [1, 15]: > 50 µM; maximum inhibition [2, 15]: 56.8%; EC50 hypnozoite quantity [5, 15]: > 50 µM
CN(C)[C@@H]1C(O)=C(C(N)=O)C(=O)[C@@]2(O)C(O)=C3C(=O)c4c(O)cccc4[C@@](C)(O)[C@H]3C[C@@H]12 [Tetracycline] | > 10 | 56.7 | > 10 | > 10 | > 10 | > 10 | – | –
